Measurements from PubChem BioAssay (NCI).
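A five-concentration, 48-hour dose response in 96-well plates underlies each endpoint, interpolated linearly between surrounding concentrations. TGI: total growth inhibition.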

Key:
Experiment in all cases: DTP human tumour cell line panel, 48 h
OVCAR-3 ovarian = system: OVCAR-3 ovarian
MCF7 breast = system: MCF7 breast
NCI-H460 lung = system: NCI-H460 lung
K-562 leukemia = system: K-562 leukemia
RPMI-8226 leukemia = system: RPMI-8226 leukemia
SK-MEL-28 melanoma = system: SK-MEL-28 melanoma
NCI/ADR-RES ovarian = system: NCI/ADR-RES ovarian
M19-MEL melanoma = system: M19-MEL melanoma
BT-549 breast = system: BT-549 breast
SF-295 CNS = system: SF-295 CNS
SW-620 colon = system: SW-620 colon
A498 renal = system: A498 renal
SF-539 CNS = system: SF-539 CNS
RXF 393 renal = system: RXF 393 renal
CAKI-1 renal = system: CAKI-1 renal
MDA-MB-231 breast = system: MDA-MB-231 breast
KM12 colon = system: KM12 colon
UACC-62 melanoma = system: UACC-62 melanoma
T-47D breast = system: T-47D breast
NCI-H522 lung = system: NCI-H522 lung
COLO 205 colon = system: COLO 205 colon
HOP-92 NSCLC = system: HOP-92 NSCLC
OVCAR-5 ovarian = system: OVCAR-5 ovarian
DU-145 prostate = system: DU-145 prostate
U251 CNS = system: U251 CNS
UACC-257 melanoma = system: UACC-257 melanoma
HS 578T breast = system: HS 578T breast
UO-31 renal = system: UO-31 renal
HCT-15 colon = system: HCT-15 colon
HCT-116 colon = system: HCT-116 colon
SNB-19 CNS = system: SNB-19 CNS
OVCAR-8 ovarian = system: OVCAR-8 ovarian
SK-MEL-2 melanoma = system: SK-MEL-2 melanoma
SN12C renal = system: SN12C renal
OVCAR-4 ovarian = system: OVCAR-4 ovarian
SK-MEL-5 melanoma = system: SK-MEL-5 melanoma
HT29 colon = system: HT29 colon
LOX IMVI melanoma = system: LOX IMVI melanoma
HL-60(TB) leukemia = system: HL-60(TB) leukemia
IGROV1 ovarian = system: IGROV1 ovarian
HOP-62 NSCLC = system: HOP-62 NSCLC
TK-10 renal = system: TK-10 renal
PC-3 prostate = system: PC-3 prostate
DMS 273 small cell lung = system: DMS 273 small cell lung
SR leukemia = system: SR leukemia
ACHN renal = system: ACHN renal
DLD-1 colon = system: DLD-1 colon
MDA-N = system: MDA-N
LXFL 529 NSCLC = system: LXFL 529 NSCLC
MOLT-4 leukemia = system: MOLT-4 leukemia
M14 melanoma = system: M14 melanoma
786-0 renal = system: 786-0 renal
MALME-3M melanoma = system: MALME-3M melanoma
NCI-H23 lung = system: NCI-H23 lung
EKVX NSCLC = system: EKVX NSCLC
HCC-2998 colon = system: HCC-2998 colon
SNB-75 CNS = system: SNB-75 CNS
DMS 114 small cell lung = system: DMS 114 small cell lung
CCRF-CEM leukemia = system: CCRF-CEM leukemia
A549 NSCLC = system: A549 NSCLC
SK-OV-3 ovarian = system: SK-OV-3 ovarian
NCI-H226 lung = system: NCI-H226 lung
MDA-MB-435 = system: MDA-MB-435
SF-268 CNS = system: SF-268 CNS
KM20L2 colon = system: KM20L2 colon

Work on `CCN(CC)CCNc1ccc2nc(C)n3c4ccc(OC)cc4c(=O)c1c23` yielded a TGI (OVCAR-3 ovarian) of 19.8 µM, a TGI (MCF7 breast) of 6.57 µM and a TGI (NCI-H460 lung) of 2.42 µM. It also gave a TGI (K-562 leukemia) of 4.13 µM, a TGI (RPMI-8226 leukemia) of 5.34 µM and a TGI (SK-MEL-28 melanoma) of 25.9 µM. The TGI (NCI/ADR-RES ovarian) was 15.1 µM, the TGI (M19-MEL melanoma) was 19.5 µM and the TGI (BT-549 breast) was 22.5 µM. It also gave a TGI (SF-295 CNS) of 7.82 µM, a TGI (SW-620 colon) of 9.27 µM and a TGI (A498 renal) of 20.6 µM. The TGI (SF-539 CNS) was 18.7 µM, the TGI (RXF 393 renal) was 10.5 µM and the TGI (CAKI-1 renal) was 13 µM. The TGI (MDA-MB-231 breast) was 16.9 µM, the TGI (KM12 colon) was 14.6 µM and the TGI (UACC-62 melanoma) was 20 µM. For the same compound, the TGI (T-47D breast) was 33.8 µM, the TGI (NCI-H522 lung) was 2.74 µM and the TGI (COLO 205 colon) was 13 µM. For the same compound, the TGI (HOP-92 NSCLC) was 20.7 µM, the TGI (OVCAR-5 ovarian) was 20.3 µM and the TGI (DU-145 prostate) was 13.3 µM. For the same compound, the TGI (U251 CNS) was 20.6 µM, the TGI (UACC-257 melanoma) was 22.3 µM and the TGI (HS 578T breast) was 6.68 µM. For the same compound, the TGI (UO-31 renal) was 16.3 µM, the TGI (HCT-15 colon) was 10.3 µM and the TGI (HCT-116 colon) was 6 µM. It also gave a TGI (SNB-19 CNS) of 13.7 µM, a TGI (OVCAR-8 ovarian) of 9.25 µM and a TGI (SK-MEL-2 melanoma) of 28 µM. For the same compound, the TGI (SN12C renal) was 15.2 µM, the TGI (OVCAR-4 ovarian) was 8.25 µM and the TGI (SK-MEL-5 melanoma) was 19.1 µM. It also gave a TGI (HT29 colon) of 1.99 µM, a TGI (LOX IMVI melanoma) of 2.55 µM and a TGI (HL-60(TB) leukemia) of 2.96 µM. The TGI (IGROV1 ovarian) was 4.26 µM, the TGI (HOP-62 NSCLC) was 21.7 µM and the TGI (TK-10 renal) was 4.75 µM. It also gave a TGI (PC-3 prostate) of 17.5 µM, a TGI (DMS 273 small cell lung) of 11.5 µM and a TGI (SR leukemia) of 0.56 µM. The TGI (ACHN renal) was 13.3 µM, the TGI (DLD-1 colon) was 10.9 µM and the TGI (MDA-N) was 17.2 µM. The TGI (LXFL 529 NSCLC) was 17.5 µM, the TGI (MOLT-4 leukemia) was 1.15 µM and the TGI (M14 melanoma) was 24.1 µM. The TGI (786-0 renal) was 7.88 µM, the TGI (MALME-3M melanoma) was 21.7 µM and the TGI (NCI-H23 lung) was 18.3 µM. For the same compound, the TGI (EKVX NSCLC) was 13.9 µM, the TGI (HCC-2998 colon) was 6.2 µM and the TGI (SNB-75 CNS) was 19 µM. For the same compound, the TGI (DMS 114 small cell lung) was 14.6 µM, the TGI (CCRF-CEM leukemia) was 1.19 µM and the TGI (A549 NSCLC) was 15 µM. The TGI (SK-OV-3 ovarian) was 19.5 µM, the TGI (NCI-H226 lung) was 7.11 µM and the TGI (MDA-MB-435) was 27.1 µM. The TGI (SF-268 CNS) was 15.3 µM.

For `COc1cc(C(C)c2cc3c(cc2OCCCCCOc2cc4c(cc2C(C)c2cc(OC)c(OC)c(OC)c2)OCO4)OCO3)cc(OC)c1OC` (centres undefined), the TGI (OVCAR-3 ovarian) was > 100 µM, the TGI (KM20L2 colon) was > 100 µM and the TGI (NCI-H460 lung) was > 100 µM. For the same compound, the TGI (K-562 leukemia) was > 100 µM, the TGI (RPMI-8226 leukemia) was > 100 µM and the TGI (SK-MEL-28 melanoma) was > 100 µM. The TGI (M19-MEL melanoma) was > 100 µM, the TGI (SF-295 CNS) was > 100 µM and the TGI (SW-620 colon) was > 100 µM. The TGI (A498 renal) was > 100 µM, the TGI (SF-539 CNS) was > 100 µM and the TGI (RXF 393 renal) was > 100 µM. For the same compound, the TGI (CAKI-1 renal) was > 100 µM, the TGI (KM12 colon) was > 100 µM and the TGI (UACC-62 melanoma) was > 100 µM. For the same compound, the TGI (NCI-H522 lung) was > 100 µM, the TGI (OVCAR-5 ovarian) was > 100 µM and the TGI (U251 CNS) was > 100 µM. The TGI (UACC-257 melanoma) was > 100 µM, the TGI (UO-31 renal) was > 100 µM and the TGI (HCT-15 colon) was > 100 µM. For the same compound, the TGI (HCT-116 colon) was > 100 µM, the TGI (SNB-19 CNS) was > 100 µM and the TGI (OVCAR-8 ovarian) was > 100 µM. For the same compound, the TGI (SK-MEL-2 melanoma) was > 100 µM, the TGI (SN12C renal) was > 100 µM and the TGI (OVCAR-4 ovarian) was > 100 µM. For the same compound, the TGI (SK-MEL-5 melanoma) was > 100 µM, the TGI (HT29 colon) was > 100 µM and the TGI (LOX IMVI melanoma) was > 100 µM. The TGI (HL-60(TB) leukemia) was > 100 µM, the TGI (IGROV1 ovarian) was > 100 µM and the TGI (HOP-62 NSCLC) was > 100 µM. The TGI (DMS 273 small cell lung) was > 100 µM, the TGI (SR leukemia) was > 100 µM and the TGI (ACHN renal) was > 100 µM. The TGI (DLD-1 colon) was > 100 µM, the TGI (LXFL 529 NSCLC) was > 100 µM and the TGI (MOLT-4 leukemia) was > 100 µM. For the same compound, the TGI (M14 melanoma) was > 100 µM, the TGI (786-0 renal) was > 100 µM and the TGI (MALME-3M melanoma) was > 100 µM. The TGI (NCI-H23 lung) was > 100 µM, the TGI (EKVX NSCLC) was > 100 µM and the TGI (HCC-2998 colon) was > 100 µM. The TGI (SNB-75 CNS) was > 100 µM, the TGI (CCRF-CEM leukemia) was > 100 µM and the TGI (A549 NSCLC) was > 100 µM. For the same compound, the TGI (NCI-H226 lung) was > 100 µM and the TGI (SF-268 CNS) was > 100 µM.
